One data set can be described thus: Water solubility. The class given is physicochemical. The following applies: 0.1 M HCl, pH 1.00, 25° C.; for Ws: 1 week; for solubility thermodynamic at 1 week: simulated gastric fluid, thermodynamic from solid, read-out: Ws. The method, then: BA were suspended in 100 ml of 0.1 M HCl, pH 1.00, and the saturated solutions were transferred to a thermostat-equipped water bath maintained at 25° C. After incubation for 1 week, the solutions were filtered on a Millipore filter ([…]), and the concentration of BA was measured by HPLC-ESMS/MS as reported below.

A short description of data set [1]: Critical micellar concentration (surface tension / dye solubilization). The class given is physicochemical. The following applies: for CMC: BA sodium salts in 0.1 M NaCl, 25° C.; for STCMC: surface tension at CMC. The method, then: In the first method, the surface tension was performed by maximum bubble-pressure method using a Sensadyne 6000 tensiometer (Chem-Dyne Research Corp., Milwaukee, Wis.). The surface tension of aqueous solutions at various concentrations (range 0.1-100 mM) of the BA sodium salts in 0.1 M NaCl was measured at 25° C. The surface tension values were plotted against the logarithm of the bile salt concentration; the regression lines corresponding to the two parts of the curve (monomeric and micellar phases) were calculated using the method of least squares. The critical micellar concentration (CMC) value (mM) was obtained by the intersection of the two lines.
The second method is based on the fact that some dyes, specifically Orange OT ([…]), are almost insoluble in water but dissolve in solutions with micellar aggregates that incorporate them; thus, the intensity of color of the solution increases with bile salt concentration (after CMC achievement). The amount of dye solubilized in relation to bile salt concentration was determined spectrophotometrically.
For each bile acid, various solution at different concentrations, between 50 mM and 0.1 mM with appropriate dilutions, were incubated under stirring at room temperature for 3 days with an excess of Orange OT. Then all the solutions were centrifuged and filtered through a 0.22 μm Millipore fiiter (Millipore Corp., Bedford, Mass.).

A short description of data set [2]: Lipophilicity, 1-octanol/water partition coefficient (shake-flask). The class given is physicochemical. The conditions noted are these: pH 8.00, ionized BA. The method, then:
The experiments were carried out on 1 mM initial bile salt solution buffered at pH 8.00 with 0.1 M potassium phosphate buffer to ensure complete ionization of the BA. BA concentration in the water phase before and after partition in 1-octanol was measured by HPLC-ESMS/MS as reported below.

Another data set addresses bovine serum albumin (Bos taurus, UniProt P02769). The experiment in a line: Albumin binding by equilibrium dialysis. The class given is in vitro ADME. The following applies: 5% bovine serum albumin saline solution, 25° C. The method, then:
BA was dissolved at a concentration of […] in 5% bovine serum albumin saline solution and left to stand for 24 hours at 25° C. Two milliliters of this solution was dialyzed in cellulose sacs with a molecular weight cut-off of 12-14 kDa (Spectra/Por; Spectrum Medical Industries Inc., Rancho Dominguez, Calif.) against 25 ml of saline solution. The system was equilibrated by mechanical shaking for 72 hours at 25° C. BA concentrations in the starting solution and in the dialyzed solution were determined by HPLC-ES-MS/MS as reported below.

Data set [3] can be described thus: Critical micellar concentration (surface tension / dye solubilization). The class given is physicochemical.
The next data set concerns the target T1, mTGR5 (Mus musculus, UniProt Q80SS6).
T1 construct: expressed in transfected cells; host or cells: CHO-Pi10 clone 4
T1 sequence (Q80SS6 1-329): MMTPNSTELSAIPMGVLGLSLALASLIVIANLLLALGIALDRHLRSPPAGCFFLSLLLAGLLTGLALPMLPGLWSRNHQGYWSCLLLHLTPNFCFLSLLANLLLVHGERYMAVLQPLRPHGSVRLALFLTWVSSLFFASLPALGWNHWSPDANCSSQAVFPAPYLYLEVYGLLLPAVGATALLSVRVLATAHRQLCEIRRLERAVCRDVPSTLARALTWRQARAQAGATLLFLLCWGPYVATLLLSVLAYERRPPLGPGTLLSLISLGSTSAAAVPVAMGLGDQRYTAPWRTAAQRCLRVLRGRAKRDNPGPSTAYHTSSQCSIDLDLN
The experiment in a line: TGR5 activity: cAMP in mTGR5 CHO-Pi10 clone 4 cells. The format is cell-based. The following applies: mTGR5 CHO cells, value in parentheses; for Emax: 0.5 h, read-out: (mTGR5 CHO) Efficacy.

Data set [4] deals with T2, human glutathione transferase-tagged FXR-LBD (Homo sapiens, UniProt Q96RI1).
T2 construct: human glutathione transferase-tagged FXR-LBD (Life Technologies, USA); purchased Life Technologies, USA
T2 sequence (Q96RI1 262-486 limits assumed): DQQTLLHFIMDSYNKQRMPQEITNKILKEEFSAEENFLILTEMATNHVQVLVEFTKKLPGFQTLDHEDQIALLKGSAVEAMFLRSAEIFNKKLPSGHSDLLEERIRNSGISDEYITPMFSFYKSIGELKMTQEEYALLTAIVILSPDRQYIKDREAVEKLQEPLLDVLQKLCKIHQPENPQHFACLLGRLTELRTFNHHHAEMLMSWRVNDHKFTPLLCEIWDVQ
The experiment in a line: FXR AlphaScreen coactivator recruitment assay (human).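 As to hFXR Efficacy: CDCA at 50 µM taken as 100%.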 The format is biochemical. More on the design: Emax: dose or concentration left out as unconfirmed. The conditions noted are these: for EC50: human FXR-LBD, AlphaScreen, read-out: hFXR EC50; for Emax: read-out: hFXR Efficacy. The method, then:
(§1) Activation of the FXR receptor was determined using a recruitment coactivator assay, namely AlphaScreen technology. The assays were performed using human glutathione transferase-tagged FXR-LBD (Life Technologies, USA) and mouse glutathione transferase-tagged FXR-LBD (generated in-house). Briefly, assays were conducted in white, low-volume, 384-well OptiPlate using a final volume of 25 μL containing 10 nM glutathione transferase-tagged FXR-LBD protein and 30 nM biotinylated Src-1 peptide. The stimulation was carried out with different BA concentrations for 30 minutes at 25° C. […] Dose-response curves were performed in triplicate and Z′ factor was used to validate the robustness of the assay.

Data set [5] deals with T3, mouse glutathione transferase-tagged FXR-LBD (Mus musculus, UniProt Q60641).
T3 construct: mouse glutathione transferase-tagged FXR-LBD (generated in-house); made in house
T3 sequence (Q60641 264-488 limits assumed): T2 sequence (Q96RI1 262-486 limits assumed) with H7D, F8Y, N46S, V50I, S95A, S98A, N107K, I125V, I174M, H175Y
The experiment in a line: FXR AlphaScreen coactivator recruitment assay (mouse). The format is biochemical. The following applies: mouse FXR-LBD, value in parentheses; for EC50: read-out: (mFXR) EC50; for Emax: read-out: (mFXR) Efficacy. The method, then:
as §1

Data set [6] deals with T4, TGR5 (Homo sapiens, UniProt Q8TDU6).
T4 sequence (Q8TDU6 1-330): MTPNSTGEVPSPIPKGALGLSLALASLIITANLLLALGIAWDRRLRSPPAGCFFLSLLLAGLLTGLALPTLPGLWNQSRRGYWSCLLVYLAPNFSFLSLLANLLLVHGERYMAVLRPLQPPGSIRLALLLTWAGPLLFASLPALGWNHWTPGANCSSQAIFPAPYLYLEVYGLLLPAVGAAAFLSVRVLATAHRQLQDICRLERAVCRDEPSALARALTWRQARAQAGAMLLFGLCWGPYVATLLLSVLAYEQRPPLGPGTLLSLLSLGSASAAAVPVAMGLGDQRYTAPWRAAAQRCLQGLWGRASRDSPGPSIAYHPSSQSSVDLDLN
The experiment in a line: TGR5 activity: intracellular cAMP levels, NCI-H716 cells (HTR-FRET). More on the design: endogenous in cells; host or cells: NCI-H716. The class given is cell-based. The conditions noted are these: NCI-H716 cells; for Emax: 1 h, Ref. LCA 100% at 10 μM, read-out: TGR5 (NCI-H716) Efficacy; for EC50: cAMP. The method, then: Activation of TGR5 was assessed by measuring the level of cAMP using an HTR-FRET assay. Thus, NCI-H716 cells were cultured on 96-well plates coated with Matrigel (Corning, USA) (0.75 mg/ml) in DMEM supplemented with 10% FCS, 100 units/ml penicillin, and 100 μg/ml streptomycin sulphate. […] The level of intracellular cAMP was determined with Lance kit. Z′ factor was used to validate assays.

The target of data set [7] is T4, TGR5. The experiment in a line: TGR5 activity: cAMP in hTGR5 CHO-k1 cells. The following applies: hTGR5 CHO cells; for Emax: 0.5 h, Ref. LCA 100% at 10 μM, read-out: hTGR5 CHO Efficacy; for EC50: cAMP. The format is cell-based. More on the design: expressed in transfected cells; host or cells: CHO-k1.

Residue numbers refer to the chain shown, from its start. Values after ≈ are worked out from the molar mass of the structure shown.

Chain of bovine serum albumin (P02769 25-607): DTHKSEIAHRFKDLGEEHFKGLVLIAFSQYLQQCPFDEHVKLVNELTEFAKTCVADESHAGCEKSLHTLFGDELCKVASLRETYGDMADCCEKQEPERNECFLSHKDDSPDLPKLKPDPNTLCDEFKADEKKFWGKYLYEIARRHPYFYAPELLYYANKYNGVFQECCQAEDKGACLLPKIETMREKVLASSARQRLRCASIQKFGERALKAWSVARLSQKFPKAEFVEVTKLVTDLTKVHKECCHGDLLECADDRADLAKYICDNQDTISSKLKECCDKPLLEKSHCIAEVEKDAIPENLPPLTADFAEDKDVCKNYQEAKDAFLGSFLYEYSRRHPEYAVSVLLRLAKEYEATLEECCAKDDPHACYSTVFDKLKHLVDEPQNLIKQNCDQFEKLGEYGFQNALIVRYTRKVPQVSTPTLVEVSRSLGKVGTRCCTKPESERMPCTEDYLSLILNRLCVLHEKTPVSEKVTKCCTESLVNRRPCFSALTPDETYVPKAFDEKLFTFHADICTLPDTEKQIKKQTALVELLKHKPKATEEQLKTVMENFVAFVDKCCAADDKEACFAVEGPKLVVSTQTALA

For the compound `C[C@H](CCC(=O)NCCS(=O)(=O)O)[C@H]1CC[C@H]2[C@@H]3[C@H](O)C[C@@H]4C[C@H](O)CC[C@]4(C)[C@H]3C[C@H](O)[C@]12C` [TCA, reference compound], the Ws result in the data set “Water solubility” was “hs”. In [1], the CMC worked out at 4 mM and the STCMC turned out to be 51 Dyne/cm. In addition, the “LogPA−” value in [2] was −0.5. On bovine serum albumin, the “Albumin binding (%)” value was found to be 42%. In addition, the pKa in “pKa” is on record as <1 ^.

Take `C[C@H](CCC(=O)O)[C@H]1CC[C@H]2[C@@H]3[C@@H](O)C[C@@H]4C[C@H](O)CC[C@]4(C)[C@H]3CC[C@]12C` [UDCA, ursodeoxycholic acid, reference compound]: the solubility thermodynamic at 1 week in the data set “Water solubility” was 7 µM (≈ 2.75 µg/mL). Further, in data set [1], the CMC is reported as 10 mM and the STCMC turned out to be 50.5 Dyne/cm. For the same compound, in data set [2], the “LogPA−” value is 2.2. In addition, the “Albumin binding (%)” value at bovine serum albumin is reported as 94%. The compound also came in with a CMpH in data set [3] of 8.2.

With `C[C@H](CCC(=O)NCCS(=O)(=O)O)[C@H]1CC[C@H]2[C@@H]3[C@H](O)C[C@@H]4C[C@H](O)CC[C@]4(C)[C@H]3CC[C@]12C` [TCDCA, reference compound], the Ws result in the data set “Water solubility” is recorded as “hs”. Further, in data set [1], the CMC is listed as 3 mM and the STCMC came to 47.1 Dyne/cm. Moreover, in [2], the “LogPA−” value is reported as 0.9. For the same compound, the “Albumin binding (%)” value at bovine serum albumin is given as 70%. The pKa in “pKa” is recorded as <1 ^.

For `CC[C@H]1[C@@H](O)C2C3CC[C@H]([C@H](C)CCc4nn[nH]n4)[C@@]3(C)CCC2[C@@]2(C)CC[C@@H](O)C[C@@H]12` (stereo partly drawn) [Compound 15, 3α,7α-Dihydroxy-6α-ethyl-23-(tetrazol-5-yl)-6α-ethyl-24-nor-5β-cholane], the solubility thermodynamic at 1 week in “Water solubility” was 132 µM (≈ 58.7 µg/mL). The “LogPA−” value in [2] stood at 1.2. Also, the “Albumin binding (%)” value on bovine serum albumin was found to be 76%. In addition, the Emax was 102% at mTGR5; 173 ± 22% in data set [4]; 222% in data set [5]; 97 ± 7.6% at TGR5 [6]; 99 ± 3% at TGR5 [7]. Besides, the EC50 at mTGR5 worked out at 440 nM; in data set [4], 150 ± 50 nM; in data set [5], 6000 nM; on TGR5 [6], 5000 ± 1000 nM; at TGR5 [7], 720 ± 50 nM. In addition, the pKa in the data set “pKa” turned out to be 5.59.

As to `CC[C@H]1[C@@H](O)C2C3CC[C@H]([C@H](C)CC(=O)NCCOS(=O)(=O)[O-])[C@@]3(C)CCC2[C@@]2(C)CC[C@@H](O)C[C@@H]12.[Na+]` (stereo partly drawn) [Compound 21, Sodium 2-(3α,7α-dihydroxy-6α-ethyl-24-nor 5β-cholan-23-amido)-ethyl sulfate], the solubility thermodynamic at 1 week in the data set “Water solubility” is 1810 µM. Besides, the CMC in data set [1] amounted to 4 mM. Further, the “LogPA−” value in data set [2] is given as 0.9. Besides, the “Albumin binding (%)” value at bovine serum albumin is 86%. Besides, the Emax was determined as 107% at mTGR5; 136 ± 7% in data set [4]; 136% in data set [5]; 127 ± 1% on TGR5 [6]; 105 ± 2% on TGR5 [7]. Moreover, the EC50 amounted to 70 nM on mTGR5; 1500 ± 500 nM in [4]; 5400 nM in data set [5]; 190 ± 50 nM on TGR5 [6]; 20 ± 10 nM at TGR5 [7]. The compound also showed a pKa in the data set “pKa” of under 1.

Take `C[C@H](CCC(=O)O)[C@H]1CC[C@H]2[C@@H]3[C@H](O)C[C@@H]4C[C@H](O)CC[C@]4(C)[C@H]3CC[C@]12C` [CDCA, chenodeoxycholic acid, reference compound]: in [1], the CMC was 3.2 mM and the STCMC stood at 45.5 Dyne/cm. Besides, in data set [2], the “LogPA−” value is 2.2. Further, the “Albumin binding (%)” value at bovine serum albumin worked out at 96%. Further, the pKa in the data set “pKa” came out at 5. The compound also showed a CMpH in data set [3] of 7.

Regarding `CC[C@H]1[C@@H](O)C2C3CC[C@H]([C@H](C)C[C@H](C)C(=O)O)[C@@]3(C)[C@@H](O)CC2[C@@]2(C)CC[C@@H](O)C[C@@H]12` (some centres unmarked) [Ref. Cmpd. A, reference compound], in data set [1], the CMC was found to be 2 mM and the STCMC was 50.1 Dyne/cm. Further, in data set [2], the “LogPA−” value is 1.4. Further, at bovine serum albumin, the “Albumin binding (%)” value is listed as 62%. The compound further displayed a pKa in the data set “pKa” of 5. The compound further had a CMpH in data set [3] of 6.1.

The values are drawn from patent US10800807B2, “TGR5 modulators and methods of use thereof” (Intercept Pharmaceuticals, Inc., priority 2015, dated 2020).
